Experimental data reported in patent US12582644B2, “O-GlcNAc transferase inhibitors and uses thereof” (President and Fellows of Harvard College, priority 2018, dated 2026).
In brackets after ≈: the same amount, converted by molar mass.

Columns and labels:
Kinetic solubility = assay type: physicochemical; conditions: kinetic from dmso stock
[1] = Rat liver microsome stability assay; assay type: in vitro ADME; conditions: rat liver microsomes; read-out: RLM Stability (t1/2)
PAMPA assay = assay type: in vitro ADME; conditions: read-out: Permeability
ncOGT = biological target: T1, ncOGT (Homo sapiens, UniProt O15294); experiment: UDP-Glo Glycosyltransferase Assay (IC50/Ki); assay type: biochemical
T1 construct: Full length human OGT (ncOGT); made in house
T1 sequence (O15294 1-1046): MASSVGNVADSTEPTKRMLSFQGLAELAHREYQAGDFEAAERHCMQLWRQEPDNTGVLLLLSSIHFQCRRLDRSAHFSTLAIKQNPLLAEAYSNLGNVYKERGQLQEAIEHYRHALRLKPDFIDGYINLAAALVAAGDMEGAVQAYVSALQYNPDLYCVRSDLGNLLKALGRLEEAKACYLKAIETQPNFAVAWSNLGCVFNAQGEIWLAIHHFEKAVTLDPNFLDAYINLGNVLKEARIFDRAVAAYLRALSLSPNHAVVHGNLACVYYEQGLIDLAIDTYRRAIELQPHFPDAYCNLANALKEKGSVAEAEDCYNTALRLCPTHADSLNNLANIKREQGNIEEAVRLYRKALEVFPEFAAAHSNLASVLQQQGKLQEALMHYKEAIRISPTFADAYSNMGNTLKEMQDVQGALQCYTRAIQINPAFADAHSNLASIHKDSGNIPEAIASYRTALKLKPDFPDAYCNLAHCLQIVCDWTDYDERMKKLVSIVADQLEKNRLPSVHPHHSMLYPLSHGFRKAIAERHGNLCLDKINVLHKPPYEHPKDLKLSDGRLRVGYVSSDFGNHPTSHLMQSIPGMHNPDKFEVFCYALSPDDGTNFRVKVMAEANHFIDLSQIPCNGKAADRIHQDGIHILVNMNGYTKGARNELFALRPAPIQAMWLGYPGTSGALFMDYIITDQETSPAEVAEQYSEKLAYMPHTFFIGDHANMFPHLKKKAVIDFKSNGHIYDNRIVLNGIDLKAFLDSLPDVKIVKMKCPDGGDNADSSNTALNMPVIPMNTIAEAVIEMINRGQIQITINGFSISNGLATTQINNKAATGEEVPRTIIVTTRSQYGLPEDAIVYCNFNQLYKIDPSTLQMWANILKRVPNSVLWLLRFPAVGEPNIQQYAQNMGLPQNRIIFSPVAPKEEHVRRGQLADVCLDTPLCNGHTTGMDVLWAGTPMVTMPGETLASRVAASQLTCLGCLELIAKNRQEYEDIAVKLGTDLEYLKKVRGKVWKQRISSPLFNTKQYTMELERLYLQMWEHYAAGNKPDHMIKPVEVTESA
Procedure: Materials for this assay were obtained from Promega (catalog #V6961). […] Assays were performed in white, 384-well or H volume 96-well plates. Quantities in parenthesis apply to reactions run in H volume 96-well plates. Reaction volumes were 12 (24) μL. […] The quenched reactions were then mixed briefly by shaking at 600 rpm in a Thermomixer C, spun down at 400×g for 1 minute, and incubated for one hour at room temperature prior to reading luminescence, as per the manufacturer's guidelines. Data were analyzed by Microsoft Excel and Prism 7 (Graphpad). […] Each sample was run in duplicate, unless otherwise specified.

[2] = test system: global O-GlcNAcylation in HEK293T cells; experiment: Western blotting for global O-GlcNAc levels in HEK293T cells; assay type: cell-based; conditions: for protein O-GlcNAcylation: from 2 hours (FIG. 13E); for global O-GlcNAc levels, dose dependence: 4 hours (FIG. 13C); for O-GlcNAc levels after prolonged treatment: 96 hours (FIG. 13E)
HCT116 cells = experiment: Cell viability and live-cell imaging (IncuCyte confluence, CellTiter-Glo); assay type: cell-based; conditions: for cellular confluency relative to DMSO control: HCT116, 40 μM, 96 hours; for cell growth: HCT116, 96 hours, 10 or 40 μM
Procedure: (§1) HCT116 cells were plated into 384-well plate one day prior to treatment with compounds (300 cells per well). Compounds were dispensed using a D300e Digital Dispenser (Tecan). Cells were imaged every 3 hours using an IncuCyte ZOOM instrument (Sartorius) to generate growth curves. After four days of treatment, cell viability was assessed using the CellTiter-Glo® Luminescent Cell Viability Assay (Promega). Luminescence signal was recorded using the GloMax® Explorer System (Promega). For Cytotoxicity, HEK293T cells were plated into a 96-well plate two days prior to treatment with compounds at 80% confluency. The number of dead cells were assessed by CellTox™ Green Cytotoxicity Assay (Promega).

[3] = test system: global O-GlcNAcylation in PC3 cells; experiment: Western blotting for O-GlcNAc levels in PC3 cells; conditions: PC3 prostate cancer cells
Procedure: (§3) Cells were plated and grown in their respective media until they reached a confluency of 60-80%. […] For all other cell lines, compounds were dissolved in 0.2 mL of fresh media and then added directly to the cells.
(§4) Cell lysates for from HEK293T, LNCaP, HCT116 and PC3 cells were prepared for western blotting in the following manner, and all the steps were conducted at 4° C. […] Samples were transferred to a nitrocellulose membrane (Bio-Rad). Membranes were blocked with 5% bovine serum albumin in TBST and probed with primary antibodies overnight at 4° C. and for 1 h at RT with peroxidase conjugated secondary antibodies, as indicated in each figure. Blots were developed using enhanced chemiluminescence (Pierce) and visualized with an Amersham Imager 600.

[4] = test system: global O-GlcNAcylation in LNCaP cells; experiment: Western blotting for O-GlcNAc levels in LNCaP cells; conditions: LNCaP prostate cancer cells
Procedure: as §3, §4

HEK293T cells [5] = experiment: CellTox Green Cytotoxicity Assay; assay type: cell-based; conditions: 24 hours, 0-50 μM
Procedure: as §1

HEK293T cells [6] = experiment: Quantitative proteomics / protein abundance in HEK293T cells; conditions: 20 μM
Procedure: At the indicated time point, cells were lysed in lysis buffer (2% SDS 50 mM Tris-HCl and 150 mM NaCl), sonicated (BioDisruptor) and protein concentration determined with the BCA assay. Samples were reduced with 5 mM DTT for 45 mins at 60° C., then alkylated with 14 mM iodoacetamide for 45 mins at room temperature in the dark. Then 100 μg of protein was precipitated using chloroform/methanol.^32 Protein pellets were resuspended in 200 mM HEPES pH 8.5 to 1 mg/mL. Proteins were digested with LysC (Wako) (substrate:enzyme=100) overnight at 37° C. and then with sequencing grade Trypsin (Promega) (substrate:enzyme=100) for 6 hours at 37° C. The resulting peptide solutions were then labelled with TMT 10/11-plex reagents (Thermo Scientific) for 1.5 hours at room temperature. Reactions were stopped by addition of 5% hydroxylamine for 30 minutes. Equal amounts of peptide samples were combined, dried by vacuum centrifugation and desalted on a Waters C18 solid phase extraction Sep-Pak. TMT-labeled peptide samples were fractionated via basic-pH reverse-phase (BPRP) HPLC to 96 fractions and then consolidated to 12 fractions. These fractions were subsequently acidified with 1% formic acid, vacuum centrifuged to near dryness and desalted with C18 stagetips.^32 Dried peptides were resuspended in 5% acetonitrile/5% formic acid for LC-MS/MS processing. […]
Precursors for MS2/MS3 analysis were selected using a Top10 method. […] Following acquisition of each MS2 spectrum, an MS3 spectrum was collected using the recently described method in which multiple MS2 fragment ions were captured in the MS3 precursor population using isolation waveforms with multiple frequency notches.^33b MS3 precursors were fragmented by high energy collision-induced dissociation (HCD) and analyzed using the Orbitrap (NCE 65; AGC 1.5×10^5; maximum injection time 150 ms, resolution was 50,000 at 400 Th, isolation window 0.7 Da).
Mass spectra were processed using a SEQUEST-based pipeline^23 Spectra were converted to mzXML using a modified version of ReAdW.exe. […]

[7] = test system: HCF-1 cleavage in HEK293T cells; experiment: HCF-1 cleavage in HEK293T cells (Western blotting); assay type: cell-based; conditions: for uncleaved HCF-1: over 96 hours
Text: (§2) In addition to glycosylating Ser/Thr residues of proteins, OGT catalyzes cleavage of the cell-cycle regulator HCF-1 by glycosylating a glutamate in the HCF-1 cleavage sequence.^4c,7 An OGT inhibitor would be expected to block cleavage. Indeed, a decrease in HCF-1 cleavage products and the appearance of uncleaved HCF-1 in cells treated with 1b, 2b or 4b was observed (FIGS. 2E, 16). Because OGT knockdown is known to decrease cell proliferation,^8 the effects of 1b, 2b, and 4b on cell growth in culture over 96 hours were also monitored. Although there was no evidence of apoptosis, reduced growth of cells was observed over time (FIG. 17), consistent with the knockdown results.

[8] = test system: OGT's detained intron (intron 4) in HEK293T cells; experiment: Quantitative PCR of OGT detained intron splicing; assay type: cell-based; conditions: 10 μM, 2-hour treatment
Procedure: Total RNA was harvested directly from tissue culture plates using Trizol (Life Technologies) according to the manufacturer's directions. In all experiments, total RNA was treated with Turbo DNase (Life Technologies) to remove any residual DNA contamination, extracted in acid-buffered phenol/chloroform, and ethanol-precipitated. Reverse transcription was performed using 2 μg of DNase-treated total RNA in a 20 μL reaction following the manufacturer's protocol (SuperScript III, Life Technologies) for 1 h at 50° C. cDNA reactions were […] diluted 1:10, and 1 μL was used in each PCR reaction. Real-time qRT-PCR was performed using PowerUp SYBR Green (Life Technologies) on a StepOne-Plus Real-Time PCR System (Applied Biosystems).

[9] = test system: global O-GlcNAcylation in HCT116 cells; experiment: Western blotting for global O-GlcNAc levels in HCT116 cells; assay type: cell-based; conditions: for O-GlcNAc levels, dose dependence: HCT116, 20-80 μM, 4 hours or 24 hours
[10] = test system: HCF-1 cleavage in HCT116 cells; experiment: HCF-1 cleavage in HCT116 cells (Western blotting); assay type: cell-based; conditions: HCT116, 20-80 μM, 24 hours
Text: as §2

OGT = biological target: T2, OGT (Homo sapiens, UniProt O15294); conditions: SPR, value in parentheses; read-out: Binding affinity (Kd ± s.d.) determined by SPR; cited from earlier work
T2 sequence (O15294 1-1046): T1 sequence (O15294 1-1046)

full length OGT = biological target: T3, full length OGT (Homo sapiens, UniProt O15294); experiment: Dissociation constants by microscale thermophoresis (MST); conditions: read-out: Binding affinity (Kd ± s.d.), binding of compounds to OGT
T3 sequence (O15294 1-1046): T1 sequence (O15294 1-1046)
Procedure: Excess NHS-ester was removed with a Zeba™ Spin desalting column (ThermoFisher). A range of concentrations of the ligand were prepared in which the concentration of labeled OGT was kept constant at 5 nM, and all experiments were performed in MST running buffer (PBS, pH 7.4, 0.05% Tween-20, 1 mM DTT, 2% glycerol, 0.5% DMSO). Mixtures were incubated for at least 10 minutes to facilitate binding before MST experiments. MST experiments were carried out using 60% LED power and 20% MST power in standard capillaries (from NanoTemper Technologies). […] Kd values were calculated using a user-defined mass action equation in the GraphPad Prism 6 software (GraphPad Software, Inc.).

Row | SMILES | solubility (Kinetic solubility) [µg/mL] | half-life [1] [min] | Papp (PAMPA assay) [×10⁻⁶ cm/s] | protein O-GlcNAcylation ([2]; HEK293T, 20 μM) | global O-GlcNAc levels, dose dependence ([2]; HEK293T) | O-GlcNAc levels after prolonged treatment ([2]; HEK293T) | cellular confluency relative to DMSO control (HCT116 cells) | cell growth (HCT116 cells) | O-GlcNAc levels [3] | O-GlcNAc levels [4] | cytotoxic cell death (HEK293T cells [5]) | uncleaved HCF-1 [7] | detained intron splicing of OGT transcript [8] | O-GlcNAc levels, dose dependence [9] | other results
1 | CCOC(=O)CN(Cc1cccs1)C(=O)[C@H](NS(=O)(=O)c1cc2ccc(=O)[nH]c2cc1C)c1ccccc1OC | 21.1 (≈ 36.1 µM) | 1.3 | 511 | – | – | – | – | – | – | – | – | – | – | – | IC50 (ncOGT; UDP-Glo assay, 300 nM ncOGT, 40 μM UDP-GlcNAc): 1.8 µM; Ki (ncOGT; calculated from IC50 (UDP-Glo) by Cheng-Prusoff): 0.103 µM
2 | COC(=O)CN(Cc1cccs1)C(=O)[C@H](NS(=O)(=O)c1ccc2[nH]c(=O)ccc2c1)c1ccccc1OC [1b, Methyl (R)—N-(2-(2-methoxyphenyl)-2-((2-oxo-1,2-dihydroquinoline)-6-sulfonamido)acetyl)-N-(thiophen-2-ylmethyl)glycinate] | – | – | – | decreased protein O-GlcNAcylation in as little as 2 hours | dose dependent decreases in global O-GlcNAc levels | recover | confluency is reduced | reduced cell growth compared with the control | Decreases in O-GlcNAc levels | Decreases in O-GlcNAc levels | did not result in cytotoxic cell death | time dependent increase in uncleaved HCF-1 | increased detained intron splicing | dose dependent decreases in O-GlcNAc levels | O-GlcNAc levels ([2]; HEK293T, 20 μM, 24 hours (FIG. 13B)): O-GlcNAc levels recover after 24 hours; ability to inhibit global O-GlcNAcylation ([2]; short treatment times (<8 hr)): decent inhibitor; OGT level (Western blotting) (HEK293T cells [6]; 4 and 24 hours): an increase in OGT; changes in abundance of other proteins (off-target activity) (HEK293T cells [6]; 24 hr): Few significant changes; abundance of OGT and OGA (proteomics) (HEK293T cells [6]; time course 8, 16, 24 hours): reciprocal changes in the abundance of OGT and OGA
3 | CCOC(=O)CCCOc1ccccc1[C@@H](NS(=O)(=O)c1ccc2[nH]c(=O)ccc2c1)C(=O)N(CC(=O)OCC)Cc1cccs1 [2b, Ethyl (R)-4-(2-(2-((2-ethoxy-2-oxoethyl)(thiophen-2-ylmethyl)amino)-2-oxo-1-((2-oxo-1,2-dihydroquinoline)-6-sulfonamido)ethyl)phenoxy)butanoate] | – | – | – | decreased protein O-GlcNAcylation in as little as 2 hours | dose dependent decreases in global O-GlcNAc levels | remain very low | confluency is reduced | reduced cell growth compared with the control | Decreases in O-GlcNAc levels | Decreases in O-GlcNAc levels | did not result in cytotoxic cell death | time dependent increase in uncleaved HCF-1 | increased detained intron splicing | dose dependent decreases in O-GlcNAc levels | ability to inhibit global O-GlcNAcylation, ranking ([2]; HCT116, HEK293T, PC3, and LNCaP cells): best activity; HCF-1 cleavage, 2b compared with 1b [10]: more effective at reducing HCF-1 cleavage; HCF-1 cleavage ([7]; 20 μM, 48 hours): blocked HCF-1 cleavage; global O-GlcNAc levels, comparison with 1b ([9]; HCT116, 24-hour treatment, 20 μM (FIG. 15B)): more effective than 1b
4 | CC(=O)N[C@H]1[C@@H](OP(=O)(O)OP(=O)(O)OC[C@H]2O[C@@H](n3ccc(=O)[nH]c3=O)[C@H](O)[C@@H]2O)O[C@H](CO)[C@@H](O)[C@@H]1O [UDP-GlcNAc, reference compound] | – | – | – | – | – | – | – | – | – | – | – | – | – | – | Kd (OGT): 16.1 µM; Kd (full length OGT): 16 ± 4 µM
5 | CCOC(=O)CN(Cc1cccs1)C(=O)[C@H](NS(=O)(=O)c1cc2ccc(=O)[nH]c2cc1Cl)c1ccccc1OC [drawing 86] | 19 (≈ 31.5 µM) | 1.9 | 540 | – | – | – | – | – | – | – | – | – | – | – | –
